For data set [1] the following is noted: cited from earlier work.
The test system of data set [2] is Leishmania donovani axenic amastigote parasites. The data set can be described thus: Assay for Leishmania proliferation in vitro (axenic amastigotes, Cell TiterGlo). Type of data set: cell-based. Conditions: 48 h, 2 day incubation, read-out: L. donovani amastigotes EC50. In a few lines:
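L. donovani axenic amastigotes (9600 per well) are cultured with compound for 2 days at 37° C, 5% CO2 in RPMI-based medium at pH 5.5. Viability is read by CellTiterGlo luminescence, and EC50 is calculated.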

Data set [3] has as its system L. donovani HU3 strain in mouse peritoneal macrophages. The data set can be described thus: Proliferation of L. donovani in mouse peritoneal macrophages (SybrGreen, high-content imaging). The class given is cell-based. The following applies: Leishmania donovani, Peritoneal macrophage, 120 h; infected mouse peritoneal macrophages, 5 days; read-out: L. donavani Macrophage EC50. The procedure, abridged: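 Peritoneal macrophages from uninfected BALB/c mice were infected for 24 h with spleen-derived amastigotes (9-11 week infected mice), then exposed to compound for 5 days at 37° C. Fixed cells stained with SybrGreen and parasite nuclei counted by high-content imaging; EC50 calculated from inhibition.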

Data set [4] concerns Trypanosoma cruzi amastigotes cultured in 3T3 fibroblast cells. The data set is described as follows: Assay for proliferation of kinetoplastid parasite Trypanosoma cruzi (beta-galactosidase/CPRG readout). Type of data set: cell-based. The following applies: NIH3T3, 144 h, Tulahuen strain in 3T3 cells, 6 day incubation, read-out: T cruzi EC50.
For data set [5], the system named is Trypanosoma brucei Lister 427 strain. The data set is described as follows: Assay for proliferation of kinetoplastid parasite Trypanosoma brucei (Cell Titer Glo). Type of data set: cell-based. The following applies: bloodstream form, 48 hours, read-out: T. brucei EC50. An excerpt:
The proliferation is quantified by the addition of Cell Titer Glo (Promega®) a luminescent cell viability assay that measures the number of viable cells in culture based on the quantification of cellular ATP amount, which is an indicator of metabolically active cells. The following assay illustrates the invention without in any way limiting the scope of the invention. This parasite proliferation assay measures the increase in parasite growth using an assay that measures ATP activity, Cell Titer Glo®.
Trypanosoma brucei Lister 427 strain is grown in HMI-9 Trypanosome media for T. brucei bloodstream form. 30 μl of HMI-9 media is dispensed into 384 well assay plates. 200 nL of compounds of the invention (in DMSO), including anti-trypanosome controls (Pentamidine and suramin), are then transferred into the assay plates, as well as DMSO alone to serve as a negative control for inhibition. Then 25 μl of a suspension of T. brucei culture in HMI-9 media is dispensed into the assay plates. The final concentration of parasites in culture corresponds to 1.7% of 0.5 uM ATP activity with Cell Titer Glo® in HMI-9 media. The plates are placed in a 37° C. incubator for 48 hours in an atmospheric environment containing 5% CO2. 40 μl of Cell Titer Glo® is dispensed into the plates. The plates are then read for luminescence. The percentage inhibition of 50%, EC50, is calculated for each compound.

These results are taken from patent publication US9186361B2, “Compounds and compositions for the treatment of parasitic diseases” (Novartis AG, priority 2013, dated 2015).

`Nc1nc(N)nc(Nc2ccc([As]3SCC(CO)S3)cc2)n1` (centres unmarked) [Melarsoprol]: the “reactive encephalopathy cases that result in death” value in data set [1] (of the encephalopathy cases) is 10-70%. Besides, the “patients who developed reactive encephalopathy” value in data set [1] (patients injected with the drug) is listed as 3-10%.

Broadly, the EC50 is the midpoint of the concentration-response curve. On to `O=C(Nc1ccc(Cl)c(-c2nc3ncc(NC(=O)C4CC4(F)F)cc3[nH]2)c1)c1ccco1` (centres unmarked) [Example 44, N-(4-chloro-3-{6-[(2,2-difluorocyclopropane)amido]-1H-imidazo[4,5-b]pyridin-2-yl}phenyl)furan-2-carboxamide], for which the EC50 was found to be 2380 nM in data set [2], 5300 nM in data set [3], 3900 nM in data set [4] and 282 nM in data set [5].

For `CC(C)OC(=O)Nc1cnc2nc(-c3cc(NC(=O)c4ccc(F)o4)ccc3Cl)[nH]c2c1` [Example 47, propan-2-yl N-{2-[2-chloro-5-(5-fluorofuran-2-amido)phenyl]-1H-imidazo[4,5-b]pyridin-6-yl}carbamate], the EC50 turned out to be 900 nM in data set [2], 1520 nM in data set [3], 400 nM in data set [4] and 200 nM in data set [5].

Consider `N#CC1(C(=O)Nc2cnc3nc(-c4cc(NC(=O)c5ccc(F)o5)ccc4Cl)[nH]c3c2)CC1` [Example 70, N-(4-chloro-3-{6-[(1-cyanocyclopropane)amido]-1H-imidazo[4,5-b]pyridin-2-yl}phenyl)-5-fluorofuran-2-carboxamide], for which the 50% effective concentration (EC50) in data set [2] amounted to 1200 nM; in data set [3] it was 530 nM; in data set [4] it was 720 nM; in data set [5], 32 nM.

`CC(C)OC(=O)Nc1cnc2nc(-c3cc(NC(=O)c4ccc(C#N)o4)ccc3Cl)[nH]c2c1` [Example 48, propan-2-yl N-{2-[2-chloro-5-(5-cyanofuran-2-amido)phenyl]-1H-imidazo[4,5-b]pyridin-6-yl}carbamate]: the half-maximal effective concentration (EC50) worked out at 620 nM in data set [2], 560 nM in data set [3], 141 nM in data set [4] and 223 nM in data set [5].

Turning to `CC(C)(C)OC(=O)NCCC(=O)Nc1cnc2nc(-c3cc(NC(=O)c4ccc(F)o4)ccc3Cl)[nH]c2c1` [Example 68, tert-butyl N-[2-({2-[2-chloro-5-(5-fluorofuran-2-amido)phenyl]-1H-imidazo[4,5-b]pyridin-6-yl}carbamoyl)ethyl]carbamate], the EC50 in data set [2] came to 6200 nM; in data set [3], 7000 nM; in data set [4], 7600 nM; in data set [5] it was 411 nM.

Consider `O=C(Nc1ccc(Cl)c(-c2nc3ncc(NC(=O)C4CCC4)cc3[nH]2)c1)c1ccco1` [Example 55, N-(4-chloro-3-{6-cyclobutaneamido-1H-imidazo[4,5-b]pyridin-2-yl}phenyl)furan-2-carboxamide], for which the EC50 turned out to be 950 nM in data set [2], 830 nM in data set [3], 1250 nM in data set [4] and 75 nM in data set [5].

As to `CC(C)(C)OC(=O)NCC1(C(=O)Nc2cnc3nc(-c4cc(NC(=O)c5ccco5)ccc4Cl)[nH]c3c2)CC1` [Example 63, tert-butyl N-{[1-({2-[2-chloro-5-(furan-2-amido)phenyl]-1H-imidazo[4,5-b]pyridin-6-yl}carbamoyl)cyclopropyl]methyl}carbamate], the EC50 in data set [2] is 460 nM; in data set [3], 530 nM; in data set [4], 248 nM; in data set [5], 44 nM.

For `CC(C)(N)C(=O)Nc1cnc2nc(-c3cc(NC(=O)c4ccco4)ccc3Cl)[nH]c2c1` [Example 26, N-{3-[6-(2-amino-2-methylpropanamido)-1H-imidazo[4,5-b]pyridin-2-yl]-4-chlorophenyl}furan-2-carboxamide], the EC50 in data set [2] was > 25000 nM; in data set [3], 23300 nM; in data set [4], 14800 nM; in data set [5] it was 530 nM.

With `O=C(CCN1CCOCC1)Nc1cnc2nc(-c3cc(NC(=O)c4ccc(F)o4)ccc3Cl)[nH]c2c1` [Example 72, N-(4-chloro-3-{6-[3-(morpholin-4-yl)propanamido]-1H-imidazo[4,5-b]pyridin-2-yl}phenyl)-5-fluorofuran-2-carboxamide], the EC50 in data set [2] was > 25000 nM; in data set [3] it was 34100 nM; in data set [4], > 20000 nM; in data set [5] it was 5360 nM.
